Like-named read-outs stand apart in the source and are kept apart here.
Target: T1, IKKε (Homo sapiens, UniProt Q14164)
T1 construct: His-tag (in-house Sf9 preparation) or GST-tag (purchased Invitrogen preparation); these are alternatives, not both on one protein; host or cells: Sf9 cells
T1 sequence (Q14164 1-716): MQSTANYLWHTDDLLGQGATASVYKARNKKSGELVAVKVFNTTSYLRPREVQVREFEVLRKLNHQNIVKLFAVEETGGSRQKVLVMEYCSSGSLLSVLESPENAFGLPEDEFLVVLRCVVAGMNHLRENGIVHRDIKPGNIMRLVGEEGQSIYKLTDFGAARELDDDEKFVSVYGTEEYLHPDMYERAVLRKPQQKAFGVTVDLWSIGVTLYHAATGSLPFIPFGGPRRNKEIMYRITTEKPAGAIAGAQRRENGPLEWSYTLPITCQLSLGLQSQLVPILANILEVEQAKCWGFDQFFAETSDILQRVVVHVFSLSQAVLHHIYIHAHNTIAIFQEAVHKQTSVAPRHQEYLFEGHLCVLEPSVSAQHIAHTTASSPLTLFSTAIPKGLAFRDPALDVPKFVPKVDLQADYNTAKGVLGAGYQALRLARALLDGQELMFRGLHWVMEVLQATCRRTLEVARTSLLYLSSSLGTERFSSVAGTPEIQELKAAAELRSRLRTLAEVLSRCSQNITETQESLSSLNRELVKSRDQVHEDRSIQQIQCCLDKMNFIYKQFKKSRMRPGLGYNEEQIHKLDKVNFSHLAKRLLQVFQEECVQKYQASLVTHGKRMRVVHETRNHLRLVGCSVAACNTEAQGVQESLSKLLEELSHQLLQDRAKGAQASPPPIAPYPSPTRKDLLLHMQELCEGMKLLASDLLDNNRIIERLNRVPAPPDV
Assay: In-vitro IKKε kinase assay (radiolabelled ATP, filterplate)
Type: biochemical
Method: IKKε enzyme was produced as a His-tag fusion in Sf9 cells or purchased as a GST-tag fusion (Invitrogen, Carlsbad, Calif.). TBK1 enzyme was produced as a His-tag fusion in Sf9 cells. Kinase reactions were carried out in reaction buffer using myelin basic protein (Millipore, Ballerica, Mass.), casein or dephosphorylated casein (Sigma, St. Louis, Mo.) as substrate at an ATP concentration equal to twice the Km,ATP value for each enzyme, corresponding to 32 μM ATP for IKKε and 60 μM ATP for TBK1. Radiolabelled [γ^33]ATP (PerkinElmer, Waltham, Mass.) in the amount of […] (IKKe, “normal”) or 0.7 μCi (IKKε, “sensitized”) or 1.25 μCi (TBK1) was added to each assay. Final enzyme concentrations were 0.1 or 0.015 μg/ml (IKKε) and 0.1 or 0.02 μg/ml (TBK1) for the “normal” and “sensitized” assay, respectively, and “sensitized” assays were conducted using only dephosphorylated casein as substrate. Test compounds (or DMSO solvent as a control) were added prior to initiation of the reactions. Reactions were terminated after 30-45 minutes by adding 3% phosphoric acid. Terminated reactions were transferred to P-81 cellulose phosphate filterplates (Whatman, Inc., Piscataway, N.J.) and washed with 1% phosphoric acid on a vacuum apparatus. After air drying, scintillant (PerkinElmer, Waltham, Mass.) was added and the plates were read on a PerkinElmer TopCount NXT instrument. Counts were normalized to DMSO controls after background subtraction.

[1] = in-vitro IKKε kinase inhibition assays, given as 0.005 μM (5 nM), read-out: IKKε kinase inhibitory activity (IC50 value)
[2] = "sensitized" assay, read-out: IC50, inhibition of the kinase activity of IKKε

## COC1CN(Cc2cc(Nc3nccc(-c4ccc(OC5CCOCC5)c(C#N)c4)n3)ccn2)C1 [Example Compound 69, 5-[2-({2-[(3-Methoxyazetidin-1-yl)methyl]pyridin-4-yl}amino)pyrimidin-4-yl]-2-(tetrahydro-2H-pyran-4-yloxy)benzonitrile]
[1]
  IC50: < 5 nM

## N#Cc1cc(-c2ccnc(Nc3cncc(CN4CCOCC4)c3)n2)ccc1OC1CCOCC1 [Example Compound 21, 5-(2-{[5-(Morpholin-4-ylmethyl)pyridin-3-yl]amino}pyrimidin-4-yl)-2-(tetrahydro-2H-pyran-4-yloxy)benzonitrile]
[1]
  IC50: < 5 nM

## N#Cc1cc(-c2ccnc(Nc3cncc(C(=O)NCCO)c3)n2)ccc1OC1CCOCC1 [Example Compound 13, 5-({4-[3-Cyano-4-(tetrahydro-2H-pyran-4-yloxy)phenyl]pyrimidin-2-yl}amino)-N-(2-hydroxyethyl)pyridine-3-carboxamide]
[1]
  IC50: < 5 nM

## CC(=O)NCc1ccc(Nc2nccc(-c3ccc(OC4CCOCC4)c(C#N)c3)n2)cn1 [Example Compound 68, N-{[5-({4-[3-Cyano-4-(tetrahydro-2H-pyran-4-yloxy)phenyl]pyrimidin-2-yl}amino)pyridin-2-yl]methyl}acetamide]
[1]
  IC50: < 5 nM

## N#Cc1cc(-c2ccnc(Nc3ccnc(N4CC(O)C4)c3)n2)ccc1OCC1CC1 [Example Compound 241, 2-(Cyclopropylmethoxy)-5-(2-{[2-(3-hydroxyazetidin-1-yl)pyridin-4-yl]amino}pyrimidin-4-yl)benzonitrile]
[2]
  IC50: < 5 nM

## Cc1ccc(Nc2nccc(-c3ccc(OC4CCN(C(=O)CO)CC4)c(C#N)c3)n2)cn1 [Example Compound 221, 2-{[1-(Hydroxyacetyl)piperidin-4-yl]oxy}-5-{2-[(6-methylpyridin-3-yl)amino]pyrimidin-4-yl}benzonitrile]
[2]
  IC50: < 5 nM

## COC1CCN(c2cc(Nc3nccc(-c4ccc(OC5CCOCC5)c(C#N)c4)n3)ccn2)C1 (stereo not shown) [Example Compound 39, 5-(2-{[2-(3-Methoxypyrrolidin-1-yl)pyridin-4-yl]amino}pyrimidin-4-yl)-2-(tetrahydro-2H-pyran-4-yloxy)benzonitrile]
[2]
  IC50: < 5 nM
[1]
  IC50: < 5 nM

## COCCNc1cc(Nc2nccc(-c3ccc(OCC4CC4)c(C#N)c3)n2)ccn1 [Example Compound 245, 2-(Cyclopropylmethoxy)-5-[2-({2-[(2-methoxyethyl)amino]pyridin-4-yl}amino)pyrimidin-4-yl]benzonitrile]
[2]
  IC50: < 5 nM

## N#Cc1cc(-c2ccnc(Nc3ccnc(CO)c3)n2)ccc1OC1CCOCC1 [Example Compound 66, 5-(2-{[2-(Hydroxymethyl)pyridin-4-yl]amino}pyrimidin-4-yl)-2-(tetrahydro-2H-pyran-4-yloxy)benzonitrile]
[1]
  IC50: < 5 nM

## COC1CN(c2cc(Nc3nccc(-c4ccc(OCC5CC5)c(C#N)c4)n3)ccn2)C1 [Example Compound 248, 2-(Cyclopropylmethoxy)-5-(2-{[2-(3-methoxyazetidin-1-yl)pyridin-4-yl]amino}pyrimidin-4-yl)benzonitrile]
[2]
  IC50: < 5 nM

## N#Cc1cc(-c2ccnc(Nc3ccc(-c4cn[nH]c4)nc3)n2)ccc1OC1CCOCC1 [Example Compound 188, 5-(2-{[6-(1H-Pyrazol-4-yl)pyridin-3-yl]amino}pyrimidin-4-yl)-2-(tetrahydro-2H-pyran-4-yloxy)benzonitrile]
[2]
  IC50: < 5 nM

## CC(=O)c1ccc(Nc2nccc(-c3ccc(OC4CCOCC4)c(C#N)c3)n2)cn1 [Example Compound 62, 5-{2-[(6-Acetylpyridin-3-yl)amino]pyrimidin-4-yl}-2-(tetrahydro-2H-pyran-4-yloxy)benzonitrile]
[1]
  IC50: < 5 nM

## CC(O)c1ccc(Nc2nccc(-c3ccc(OC4CCOCC4)c(C#N)c3)n2)cn1 (stereo not shown) [Example Compound 61, 5-(2-{[6-(1-Hydroxyethyl)pyridin-3-yl]amino}pyrimidin-4-yl)-2-(tetrahydro-2H-pyran-4-yloxy)benzonitrile]
[1]
  IC50: < 5 nM

## N#Cc1cc(-c2ccnc(Nc3ccc(N4CC(O)C4)nc3)n2)ccc1OC1CCOCC1 [Example Compound 46, 5-(2-{[6-(3-Hydroxyazetidin-1-yl)pyridin-3-yl]amino}pyrimidin-4-yl)-2-(tetrahydro-2H-pyran-4-yloxy)benzonitrile]
[1]
  IC50: < 5 nM

## CN(C)c1ccc(-c2ccc(Nc3nccc(-c4ccc(OC5CCOCC5)c(C#N)c4)n3)cn2)cn1 [Example Compound 81, 5-(2-{[6′-(Dimethylamino)-2,3′-bipyridin-5-yl]amino}pyrimidin-4-yl)-2-(tetrahydro-2H-pyran-4-yloxy)benzonitrile]
[2]
  IC50: < 5 nM
[1]
  IC50: < 5 nM

## CCN(CC)c1ccc(Nc2nccc(-c3ccc(OC4CCOCC4)c(C#N)c3)n2)cn1 [Example Compound 9, 5-(2-{[6-(Diethylamino)pyridin-3-yl]amino}pyrimidin-4-yl)-2-(tetrahydro-2H-pyran-4-yloxy)benzonitrile]
[2]
  IC50: < 5 nM
[1]
  IC50: < 5 nM

## C[C@@H](O)C(=O)N(C)Cc1ccc(Nc2nccc(-c3ccc(OC4CCOCC4)c(C#N)c3)n2)cn1 [Example Compound 198, (2R)-N-{[5-({4-[3-Cyano-4-(tetrahydro-2H-pyran-4-yloxy)phenyl]pyrimidin-2-yl}amino)pyridin-2-yl]methyl}-2-hydroxy-N-methylpropanamide]
[2]
  IC50: < 5 nM

## Cc1cc(Nc2nccc(-c3ccc(O[C@@H]4CCN(C(=O)CO)C4)c(C#N)c3)n2)ccn1 [Example Compound 223, 2-{[(3R)-1-(Hydroxyacetyl)pyrrolidin-3-yl]oxy}-5-{2-[(2-methylpyridin-4-yl)amino]pyrimidin-4-yl}benzonitrile]
[2]
  IC50: < 5 nM

## CN(Cc1ccc(Nc2nccc(-c3ccc(OC4CCOCC4)c(C#N)c3)n2)cn1)C(=O)CO [Example Compound 195, N-{[5-({4-[3-Cyano-4-(tetrahydro-2H-pyran-4-yloxy)phenyl]pyrimidin-2-yl}amino)pyridin-2-yl]methyl}-2-hydroxy-N-methylacetamide]
[2]
  IC50: < 5 nM

## COC(=O)c1ccc(Nc2nccc(-c3ccc(OC4CCOCC4)c(C#N)c3)n2)cn1 [Example Compound 33, Methyl 5-({4-[3-cyano-4-(tetrahydro-2H-pyran-4-yloxy)phenyl]pyrimidin-2-yl}amino)pyridine-2-carboxylate]
[2]
  IC50: < 5 nM
[1]
  IC50: < 5 nM

## CN(C)c1ccc(Nc2nccc(-c3ccc(OC4CCOCC4)c(C#N)c3)n2)cn1 [Example Compound 10, 5-(2-{[6-(Dimethylamino)pyridin-3-yl]amino}pyrimidin-4-yl)-2-(tetrahydro-2H-pyran-4-yloxy)benzonitrile]
[2]
  IC50: < 5 nM
[1]
  IC50: < 5 nM

## COC(=O)c1cc(Nc2nccc(-c3ccc(OC4CCOCC4)c(C#N)c3)n2)ccn1 [Example Compound 36, Methyl 4-({4-[3-cyano-4-(tetrahydro-2H-pyran-4-yloxy)phenyl]pyrimidin-2-yl}amino)pyridine-2-carboxylate]
[1]
  IC50: < 5 nM

## COC1CN(C(=O)c2csc(Nc3nccc(-c4ccc(OC5CCOCC5)c(C#N)c4)n3)n2)C1 [Example Compound 104, 5-[2-({4-[(3-Methoxyazetidin-1-yl)carbonyl]-1,3-thiazol-2-yl}amino)pyrimidin-4-yl]-2-(tetrahydro-2H-pyran-4-yloxy)benzonitrile]
[2]
  IC50: < 5 nM
[1]
  IC50: < 5 nM

## CC(=O)N(C)Cc1ccc(Nc2nccc(-c3ccc(OC4CCOCC4)c(C#N)c3)n2)cn1 [Example Compound 208, N-{[5-({4-[3-Cyano-4-(tetrahydro-2H-pyran-4-yloxy)phenyl]pyrimidin-2-yl}amino)pyridin-2-yl]methyl}-N-methylacetamide]
[2]
  IC50: < 5 nM

## CN(Cc1ccc(Nc2nccc(-c3ccc(OC4CCOCC4)c(C#N)c3)n2)cn1)C(=O)C1(O)CC1 [Example Compound 197, N-{[5-({4-[3-Cyano-4-(tetrahydro-2H-pyran-4-yloxy)phenyl]pyrimidin-2-yl}amino)pyridin-2-yl]methyl}-1-hydroxy-N-methylcyclopropanecarboxamide]
[2]
  IC50: < 5 nM

Source: patent publication US20140288044A1, “COMPOSITIONS AND THERAPEUTIC USES OF IKK-RELATED KINASE EPSILON AND TANKBINDING KINASE 1 INHIBITORS” (Alzheimer's Institute of America, Inc., priority 2011, published 2014)
